Where two headings read alike, the source gives them in different places.
Tests used:
[1] = target: HCV NS5B RNA-dependent RNA polymerase (1b-BKΔ55) (Hepatitis C virus genotype 1b (isolate BK) (HCV), UniProt P26663); experiment: HCV NS5B polymerase inhibition assay (radiolabeled nucleotide incorporation); assay type: biochemical; details: 5 nM NS5B (1b-BKΔ55), [33P]-CTP incorporation, room temperature 1 hour
Method: The ability of the nucleoside triphosphate derivatives to inhibit the enzymatic activity of the HCV NS5B RNA-dependent RNA polymerase was measured in a radiolabeled nucleotide incorporation assay modified from the method described in International Publication No. WO2002/057287. Briefly, 50 μL reactions containing 20 mM HEPES (pH 7.3), 7.5 mM DTT, 20 units/mL RNasIN, 1 μM each of ATP, GTP, UTP and CTP, 20 μCi/mL [^33P]-CTP, 10 mM MgCl2, 60 mM NaCl, 100 μg/ml BSA, 0.021 μM DCoH heteropolymer RNA template and 5 nM NS5B (1b-BKΔ55) enzyme were incubated at room temperature for 1 hour. Assay was terminated by the addition of 500 mM EDTA (50 μL). The reaction mixture was transferred to a Millipore DE81 filter plate and the incorporation of labeled CTP was determined using Packard TopCount. Compound IC50 values were calculated from experiments with 10 serial 3-fold dilutions of the inhibitor in duplicate.

HCV replicon (1b) = experiment: Cell-based HCV replicon assay
Method: To measure cell-based anti-HCV activity of selected compounds of the present invention, replicon cells were seeded at 5000 cells/well in 96-well collagen I-coated Nunc plates in the presence of the test compound. Various concentrations of test compound, typically in 10 serial 2-fold dilutions, were added to the assay mixture, with the starting concentration ranging from 250 μM to 1 μM. The final concentration of dimethylsulfoxide was 0.5%, fetal bovine serum was 5%, in the assay media. Cells were harvested on day 3 by the addition of 1× cell lysis buffer (Ambion cat #8721). The replicon RNA level was measured using real time PCR (Taqman assay). The amplicon was located in 5B. The PCR primers were: 5B.2F, ATGGACAGGCGCCCTGA (SEQ ID. NO. 1); 5B.2R, […] (SEQ ID. NO. 2); the probe sequence was FAM-labeled CACGCCATGCGCTGCGG (SEQ ID. NO. 3). GAPDH RNA was used as endogenous control and was amplified in the same reaction as NS5B (multiplex PCR) using primers and VIC-labeled probe recommended by the manufacturer (PE Applied Biosystem). The real-time RT-PCR reactions were run on ABI PRISM 7900HT Sequence Detection System using the following program: 48° C. for 30 minutes, 95° C. for 10 minutes, 40 cycles of 95° C. for 15 sec, 60° C. for 1 minute. The ΔCT values (CT5B-CTGAPDH) were plotted against the concentration of test compound and fitted to the sigmoid dose-response model using XLfit4 (MDL). EC50 was defined as the concentration of inhibitor necessary to achieve ΔCT=1 over the projected baseline; EC90 the concentration necessary to achieve ΔCT=3.2 over the baseline. Alternatively, to quantitate the absolute amount of replicon RNA, a standard curve was established by including serially diluted T7 transcripts of replicon RNA in the Taqman assay. All Taqman reagents were from PE Applied Biosystems. Such an assay procedure was described in detail in e.g. Malcolm et al., Antimicrobial Agents and Chemotherapy 50: 1013-1020 (2006).

[2] = system: Huh 7 hepatoma cells containing the subgenomic HCV replicon; experiment: Cytotoxicity (MTS assay or GAPDH RNA readout); assay type: cell-based
Method: The effect of the nucleoside derivatives on the proliferation and metabolism of Huh 7 hepatoma cells containing the subgenomic HCV replicon was measured using the MTS assay. Briefly, cells were seeded and dosed with compounds exactly as described in Example 13 above, for replicon EC50 determination. After a 3-day compound incubation period, the MTS assay was performed in accordance with the manufacturer's protocol for the CellTiter 96 Aqueous One Solution Cell Proliferation Assay (Promega, Catalog #G358). Alternatively, after a 3-day compound incubation, the amount of glyceraldehyde-3-phosphate dehydrogenase (GAPDH) RNA in replicon-containing Huh 7 cells was determined using qRT-PCR. CC50 values were derived from 10 serial 2-fold dilutions of the inhibitor in duplicate that yielded 50% inhibition of the MTS or GAPDH RNA readout by comparison with cells treated with vehicle control.

[3] = replicon cells, 3-day incubation, replicon RNA by real time PCR (Taqman); read-out: 1b EC50

Sequence of HCV NS5B RNA-dependent RNA polymerase (1b-BKΔ55) (P26663 2420-2955): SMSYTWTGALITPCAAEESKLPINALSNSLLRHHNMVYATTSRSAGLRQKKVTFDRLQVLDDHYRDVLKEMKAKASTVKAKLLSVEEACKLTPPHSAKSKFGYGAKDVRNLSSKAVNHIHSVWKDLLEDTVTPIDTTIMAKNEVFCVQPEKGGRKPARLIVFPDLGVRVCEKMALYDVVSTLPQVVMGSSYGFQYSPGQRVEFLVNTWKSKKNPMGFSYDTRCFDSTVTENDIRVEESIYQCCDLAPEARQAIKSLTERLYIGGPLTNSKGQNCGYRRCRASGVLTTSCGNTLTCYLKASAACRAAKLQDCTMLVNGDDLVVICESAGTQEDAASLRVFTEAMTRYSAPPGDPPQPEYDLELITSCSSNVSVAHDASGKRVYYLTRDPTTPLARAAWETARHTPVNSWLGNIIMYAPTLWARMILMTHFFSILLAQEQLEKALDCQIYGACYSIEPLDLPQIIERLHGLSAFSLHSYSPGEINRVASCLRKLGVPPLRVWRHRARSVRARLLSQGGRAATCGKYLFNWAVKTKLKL

| SMILES | IC50 [1] [µM] | EC50 (HCV replicon (1b); [3]) [µM] | CC50 [2] [µM] | other results |
| --- | --- | --- | --- | --- |
| C[C@H](OP(=O)(O)OP(=O)(O)OP(=O)(O)O)[C@H]1O[C@@H](n2ccc3c(N)ncnc32)[C@](C)(O)[C@@H]1O [Compound 37] | 40 |  |  |  |
| C[C@@H](O)[C@H]1O[C@@H](n2ccc3c(N)ncnc32)[C@](C)(O)[C@@H]1O [Compound 1] |  | 61 | 78 |  |
| CC(OP(=O)(O)OP(=O)(O)OP(=O)(O)O)[C@H]1O[C@@H](n2ccc3c(N)ncnc32)[C@](C)(F)[C@@H]1O (stereo partly drawn) [Compound 15] | > 20 |  |  |  |
| CC(C)(O)[C@H]1O[C@@H](n2ccc3c(N)ncnc32)[C@](C)(F)[C@@H]1O [Compound 30] |  | > 100 | > 100 |  |
| C[C@@H](OP(=O)(O)OP(=O)(O)OP(=O)(O)O)[C@H]1O[C@@H](n2ccc3c(N)ncnc32)[C@](C)(O)[C@@H]1O [Compound 36] | 65 |  |  |  |
| CCCCOC(=O)[C@H](C)NP(=O)(Oc1cccc2ccccc12)OC(C)[C@H]1O[C@@H](n2ccc3c(N)ncnc32)[C@](C)(O)[C@@H]1O (stereo partly drawn) [Compound 45] |  |  |  | EC50 (HCV replicon (1b); read-out: 1b EC50; replicon cells, 3-day incubation, replicon RNA by real time PCR (Taqman)): 22 µM; CC50 ([2]; replicon-containing Huh 7 cells, 3-day incubation, MTS or GAPDH RNA readout, read-out: 1b CC50): > 100 µM |

Reference: patent publication US9416154B2, “5′-substituted nucleoside derivatives and methods of use thereof for the treatment of viral diseases” (priority 2011, dated 2016)
